Assay results taken from article PMC10813298, “Evidence of Guanidines Potential against Leishmania (Viannia) braziliensis: Exploring In Vitro Effectiveness, Toxicities and of Innate Immunity Response Effects” (Biomolecules, 2023).

How the values were obtained:
pulmonary artery = experiment: Vasodilator effect on pulmonary artery rings (KCl contraction); details: guinea pig pulmonary artery rings
Procedure: (§1) Guinea pigs of either sex weighing between 250 or 380 g were utilized in this study. The animals were housed in a controlled environment in an air-conditioned room, maintaining a temperature of 22 to 24 °C and a relative humidity of 50% to 60%. A 12 h light–dark cycle was maintained.
(§2) On the day of the experiments, the animals were euthanized via cervical dislocation. The heart, aorta, pulmonary artery, and ileum were surgically removed and immersed in Krebs–Henseleit solution, with the following composition: NaCl 144.9 mM, KCl 4.73 mM, CaCl2 3.2 mM, MgSO4 1.18 mM, NaHCO3 24.9 mM, KH2PO4 1.18 mM, and glucose 10 mM, with the pH maintained at 7.2–7.4. This solution was continuously aerated with a mixture of 95% O2 and 5% CO2.
(§3) Papillary muscles were isolated from the right ventricle of the heart and meticulously cleared of Purkinje fibers to prevent spontaneous activity. To ensure adequate oxygen supply, only muscles with a diameter less than 0.87 mm were used. The right atrium was also dissected for assessment of chronotropic activity. Both the aorta and pulmonary artery were cleaned and cut into 5 mm rings, while the ileum was sectioned into pieces measuring 1 to 2 cm.
One end of the dissected tissues was securely tied with silver wire for attachment to a tissue holder, while the other end was connected to a force transducer (Transbridge™, 4-Channel Transducer Amplifier, World Precision Instruments, Sarasota, FL, USA). For contractile measurements, the terminal ileum was stimulated with 60 mM KCl, and the pulmonary artery and aorta rings were exposed to a 90 mM KCl solution. […]
(§4) Following a 30 min control period, different concentrations of test compounds were cumulatively added to the bath solution every 45 min until a stable effect was achieved. The responses were recorded using a chart recorder (BD 112 Dual Channel, Kipp &Zonen, PO Box 507, 2624 BC, Delft, Holland) for subsequent evaluation. […]

aorta = experiment: Vasodilator effect on aortic rings (KCl contraction); details: Cavia porcellus; guinea pig aortic rings
Procedure: as §1, §2
as §3, with “Both the aorta and pulmonary artery were cleaned and cut into 5 mm rings, while the ileum was sectioned into pieces measuring 1 to 2 cm.” left out
as §4

EC50 (pulmonary artery; Cavia porcellus): 48 µM | arteria pulmonalis ring contraction force (pulmonary artery): decrease | EC50 (aorta): 16 µM
SMILES: O=C(/N=C(/NCc1ccccc1)Nc1ccc(Br)cc1)c1ccccc1 [LQOF-G2, (Z)-N-benzoyl-N-benzyl-N-(4-bromophenyl)guanidine]
